# According to patent US6569878B1, “Substituted 4-amino-thiazol-2-yl compounds as cyclin-dependent kinase inhibitors” (Agouron Pharmaceuticals Inc., priority 1997, dated 2003):
# Counter-ions that a name gives are not always drawn.
# Columns and labels:
# [1] = biological target: T1, complex of human CDK4 and cyclin D3 (Homo sapiens, UniProt P11802); assay: Inhibition of CDK4/cyclin D retinoblastoma kinase activity (D-type cyclin is D3); format: biochemical; details: superscript a: D-type cyclin is D3; apparent Ki; read-out: Ki CDK 4/D
# T1 construct: made in house; host or cells: insect cells, co-infected with baculovirus
# Procedure, shortened: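 Apparent Ki derived by fitting background-corrected activity to competitive (or, for tight binders, competitive tight-binding) equations with measured ATP Km. Rb phosphorylation by radiolabelled ATP was measured at 30°C, 20 min standard or 60 min at 5 nM complex for tight binders, via nitrocellulose capture and phosphorimager.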
# [2] = biological target: T2, human CDK1 (cdc2) and cyclin B (Homo sapiens, UniProt P06493); assay: Inhibition of CDK1(cdc2)/cyclin B histone H1 kinase activity; format: biochemical; details: read-out: Ki CDK 1/B
# T2 construct: purchased New England Biolabs (Beverly Mass.)
# Procedure: Cyclin-dependent kinase activity was measured by quantifying the enzyme-catalyzed, time-dependent incorporation of radioactive phosphate from [^32P]ATP or [^33P]ATP into a protein substrate. Unless noted otherwise, assays were performed in 96-well plates in a total volume of 50 μL, in the presence of 10 mM HEPES (N-[2-hydroxyethyl]piperazine-N′-[2-ethanesulfonic acid]) (pH 7.4), 10 mM MgCl2, 25 μM adenosine triphosphate (ATP), 1 mg/mL ovalbumin, 5 μg/mL leupeptin, 1 mM dithiothreitol, 10 mM β-glycerophosphate, 0.1 mM sodium vanadate, 1 mM sodium fluoride, 2.5 mM ethylene glycol-bis(β-aminoethyl ether)-N,N,N′N′-tetraacetic acid (EGTA), 2% (v/v) dimethylsulfoxide, and 0.03-0.4 μCi [^32/33P]ATP per reaction. Reactions were initiated with enzyme, incubated at 30° C., and terminated after 20 minutes by the addition of ethylenediaminetetraacetic acid (EDTA) to 250 mM. The phosphorylated substrate was then captured on a nitrocellulose or phosphocellulose membrane using a 96-well filtration manifold, and unincorporated radioactivity was removed by repeated washing with 0.85% phosphoric acid. Radioactivity was quantified by exposing the dried membranes to a phosphorimager.
# Apparent Ki values were measured by assaying enzyme activity in the presence of different inhibitor compound concentrations and subtracting the background radioactivity measured in the absence of enzyme. The kinetic parameters (kcat, Km for ATP) were measured for each enzyme under the usual assay conditions by determining the dependence of initial rates on ATP concentration. Inhibition data were fit to an equation for competitive inhibition using Kaleidagraph (Synergy Software), or were fit to an equation for competitive tight-binding inhibition using the software KineTic (BioKin, Ltd.).
# The complex of human CDK1 (cdc2) and cyclin B was purchased from New England Biolabs (Beverly Mass.). Alternatively, a CDK1/glutathione-S-transferase-cyclin B1 complex was purified using glutathione affinity chromatography from insect cells that had been co-infected with the corresponding baculovirus expression vectors. The assay was executed as described above at 30° C. using 2.5 units of cdc2/cyclin B, 10 μg Histone H1 protein, and 0.1-0.3 μCi [^32/33P]ATP per assay. Phosphorylated histone substrate was captured by microfiltration on a phosphocellulose P81 membrane and quantified using a phosphorimager as described above. Ki values were measured using the described curve-fitting programs.
# [3] = tested on: SW-480; assay: Inhibition of cell growth, MTT assay, SW-480; format: cell-based; details: Homo sapiens, SW480, SW-480, MTT assay
# Procedure: Inhibition of cell growth was measured using the tetrazolium salt assay, which is based on the ability of viable cells to reduce 3-(4,5-dimethylthiazol-2-yl)-2,5-[2H]-diphenyltetrazolium bromide (MTT) to formazan (Mossman, Journal of Immunological Methods, vol. 65 (1983), pp. 55-58). The water-insoluble purple formazan product was then detected spectrophotometrically. Various cell lines (HCT-116, Saos-2, U2-OS, SW480, COLO-205, RXF-393, M14, MDA-MB-468, and MCF7) were grown in 96-well plates. Cells were plated in the appropriate medium at a volume of 135 μl/well in either McCoy's 5A Medium (for Saos-2, U2-OS, SW480, and HCT-116 cells), RPMI (for COLO-205, RXF-393, M14 cells), or Minimum Essential Medium Eagle (for MDA-MB-468 and MCF7 cells). Plates were incubated for four hours before addition of inhibitor compounds. Different concentrations of inhibitor compounds were added in 0.5% (v/v) dimethylsulfoxide (15 μL/well), and cells were incubated at 37° C. (5% CO2) for four to six days (depending on cell type). At the end of the incubation, MTT was added to a final concentration of 0.2 mg/mL, and cells were incubated for 4 hours more at 37° C. After centrifugation of the plates and removal of medium, the absorbance of the formazan (solubilized in dimethylsulfoxide) was measured at 540 nm. […] All results were compared to control cells treated only with 0.5% (v/v) dimethylsulfoxide.
# [4] = biological target: T3, CDK2/cyclin A (Homo sapiens, UniProt P24941); assay: Inhibition of CDK2/cyclin A retinoblastoma kinase activity; format: biochemical; details: read-out: Ki CDK 2/A
# T3 construct: made in house; host or cells: CDK2: insect cells (baculovirus); cyclin A: E. coli, then limited proteolysis
# Procedure, shortened: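 Baculovirus-expressed CDK2 with excess proteolyzed cyclin A (or purified complex), 150 nM or 5 nM, phosphorylating an Rb fragment with 25 μM [32/33P]ATP, pH 7.4, 30° C, 20 min. Filter-captured radioactivity by phosphorimager; apparent Ki from fits to competitive or tight-binding competitive inhibition using measured ATP Km.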
# [5] = tested on: HCT116; assay: Inhibition of cell growth, MTT assay, HCT116; format: cell-based, human; details: Homo sapiens; for IC50 / IC90: HCT-116; for inhibition at 30 µM: HCT-116, at 30 μM
# Procedure, shortened: (§1)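 Cells rested 4 h after plating, then exposed to graded compound concentrations in 0.5% (v/v) DMSO for four to six days (cell-type dependent) at 37° C, 5% CO2. Viability was read by MTT (0.2 mg/mL final, 4 h at 37° C), with DMSO-solubilized formazan measured at 540 nm.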
# [6] = tested on: U2-OS; assay: Inhibition of cell growth, MTT assay, U2-OS; format: cell-based; details: for IC50 / IC90: Homo sapiens, U2OS
# Procedure, shortened: as §1
# [7] = tested on: Saos-2; assay: Inhibition of cell growth, MTT assay, Saos-2; format: cell-based; details: Saos-2, MTT assay; for IC50 / IC90: Homo sapiens
# Procedure, shortened: as §1
# T2 sequence (P06493 whole entry): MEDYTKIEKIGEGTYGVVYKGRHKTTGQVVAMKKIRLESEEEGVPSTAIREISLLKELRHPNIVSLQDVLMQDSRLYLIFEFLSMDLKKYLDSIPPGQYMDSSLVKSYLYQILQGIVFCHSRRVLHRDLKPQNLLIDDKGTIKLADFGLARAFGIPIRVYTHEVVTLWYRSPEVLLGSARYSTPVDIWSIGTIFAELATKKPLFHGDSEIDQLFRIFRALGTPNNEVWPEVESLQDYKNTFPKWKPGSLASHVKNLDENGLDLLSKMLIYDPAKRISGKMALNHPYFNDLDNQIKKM
# T2 sequence (P14635 whole entry partner): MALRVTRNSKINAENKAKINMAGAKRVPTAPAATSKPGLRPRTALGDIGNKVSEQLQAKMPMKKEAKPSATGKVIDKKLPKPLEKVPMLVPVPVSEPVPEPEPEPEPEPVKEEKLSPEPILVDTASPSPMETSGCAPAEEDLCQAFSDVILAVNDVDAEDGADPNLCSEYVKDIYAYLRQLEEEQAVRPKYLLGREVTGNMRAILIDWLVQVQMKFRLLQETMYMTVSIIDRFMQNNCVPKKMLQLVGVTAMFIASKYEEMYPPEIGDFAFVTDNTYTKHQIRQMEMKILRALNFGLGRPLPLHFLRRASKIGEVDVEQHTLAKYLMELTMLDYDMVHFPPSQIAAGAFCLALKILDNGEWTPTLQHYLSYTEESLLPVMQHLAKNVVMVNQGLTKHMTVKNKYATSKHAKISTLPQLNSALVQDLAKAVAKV
# T1 sequence (P11802 whole entry): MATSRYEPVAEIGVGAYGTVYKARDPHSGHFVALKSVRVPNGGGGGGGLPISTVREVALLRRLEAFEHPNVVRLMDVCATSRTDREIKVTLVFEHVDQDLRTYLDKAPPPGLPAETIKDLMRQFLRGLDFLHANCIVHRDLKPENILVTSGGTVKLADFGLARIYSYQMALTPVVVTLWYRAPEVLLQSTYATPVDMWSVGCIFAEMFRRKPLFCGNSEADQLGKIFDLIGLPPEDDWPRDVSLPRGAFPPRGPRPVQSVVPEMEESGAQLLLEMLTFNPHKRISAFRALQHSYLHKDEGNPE
# T1 sequence (P30281 whole entry partner): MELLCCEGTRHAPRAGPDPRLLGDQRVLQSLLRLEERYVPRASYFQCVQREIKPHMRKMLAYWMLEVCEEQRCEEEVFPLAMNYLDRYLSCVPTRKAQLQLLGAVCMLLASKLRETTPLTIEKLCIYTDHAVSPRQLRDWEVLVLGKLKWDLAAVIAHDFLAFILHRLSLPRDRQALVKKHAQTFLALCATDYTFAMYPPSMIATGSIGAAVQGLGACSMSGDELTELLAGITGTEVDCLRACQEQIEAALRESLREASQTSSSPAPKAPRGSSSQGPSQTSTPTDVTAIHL
Structure (SMILES),Ki [1],Ki [2],IC50 [3],IC90 [3],Ki [4],IC50 [5],IC90 [5],IC50 [6],IC90 [6],inhibition at 30 µM [3],inhibition at 30 µM [5],IC50 [7],IC90 [7],inhibition at 10 µM ([3]; at 10 μM),"inhibition at 10 µM ([5]; HCT-116, at 10 μM)",% inhibition of growth in parentheses after >25 ([6]; concentration not given),% inhibition of growth in parentheses after >25 ([7]; concentration not given)
"Nc1nc(NCCc2ccccc2)sc1C(=O)c1ccccc1[N+](=O)[O-] [C(5), (4-Amino-2-phenethylamino-thiazol-5-yl)-(2-nitro-phenyl)-methanone]",140 nM,293 nM,3000 nM,9000 nM,780 nM,6000 nM,25000 nM,–,–,–,–,–,–,–,–,–,–
"Nc1nc(Nc2cccnc2)sc1C(=O)c1ccccc1 [A(3), [4-Amino-2-(pyridin-3-ylamino)-thiazol-5-yl]-phenyl-methanone]",2000 nM,3500 nM,–,–,6100 nM,–,–,–,–,15%,41%,–,–,–,–,–,–
"CCOC(=O)c1ccc(Nc2nc(N)c(C(=O)c3ccccc3[N+](=O)[O-])s2)cc1 [A(5), Ethyl 4-[4-Amino-5-(2-nitro-benzoyl)-thiazol-2-ylamino]-benzoate]",97 nM,163 nM,1700 nM,3000 nM,690 nM,26000 nM,–,–,–,–,85%,–,–,–,–,–,–
"Nc1nc(Nc2ccc3nc[nH]c3c2)sc1C(=O)c1ccccc1[N+](=O)[O-] [A(9), [4-Amino-2-(1H-benzoimidazol-6-yl-amino)-thiazol-5-yl]-(2-nitro-phenyl)-methanone]",100 nM,53 nM,4000 nM,10000 nM,230 nM,20000 nM,30000 nM,–,–,–,–,–,–,–,–,–,–
"CN(C)c1ccc(Nc2nc(N)c(C(=O)c3ccccc3[N+](=O)[O-])s2)cc1 [C(4), [4-Amino-2-(4-dimethylamino-phenylamino)-thiazol-5-yl]-(2-nitro-phenyl)-methanone]",95 nM,90 nM,400 nM,3000 nM,810 nM,700 nM,30000 nM,–,–,–,–,–,–,–,–,–,–
"Nc1nc(Nc2ccccc2)sc1C(=O)c1ccccn1 [A(4), (4-Amino-2-phenylamino-thiazol-5-yl)-pyridin-2-yl-methanone]",2000 nM,2700 nM,–,–,3100 nM,–,–,–,–,66%,29%,–,–,0%,–,–,–
"Cc1ccsc1C(=O)c1sc(Nc2ccc(C(=O)C3COC(=O)[C@H]3N)cc2)nc1N (stereo partly drawn) [C(45), trans-3RS-Amino-4RS-{4-[4-amino-5-(3-methyl-thiophene-2-carbonyl)-thiazol-2-ylamino]-benzoyl}-dihydro-furan-2-one]",51 nM,249 nM,–,–,103 nM,2000 nM,8000 nM,5500 nM,12000 nM,–,–,2000 nM,10000 nM,–,–,–,–
"Cc1nc2ccc(Nc3nc(N)c(C(=O)c4ccccc4[N+](=O)[O-])s3)cc2[nH]1 [A(6), [4-Amino-2-(2-methyl-1H-benzoimidazol-6-ylamino)-thiazol-5-yl]-(2-nitro-phenyl)-methanone]",150 nM,52 nM,5000 nM,15000 nM,292 nM,20000 nM,30000 nM,–,–,–,–,–,–,–,–,–,–
"Nc1nc(Nc2ccc3nc[nH]c3c2)sc1C(=O)c1c(Cl)cc(C(F)(F)F)cc1Cl [C(37), [4-Amino-2-(1H-benzoimidazol-6-ylamino)-thiazol-5-yl]-(2,6-dichloro-4-trifluoromethyl-phenyl)-methanone]",7 nM,233 nM,–,–,310 nM,10000 nM,25000 nM,16000 nM,> 25000 nM,–,–,14000 nM,> 25000 nM,–,–,(80%),(70%)

# Second part, led by results:
Ki [1],Ki [2],IC50 [3],IC90 [3],Ki [4],IC50 [5],IC90 [5],IC50 [6],IC90 [6],Structure (SMILES),inhibition at 30 µM [3],inhibition at 30 µM [5],IC50 [7],IC90 [7],inhibition at 10 µM ([3]; at 10 μM),"inhibition at 10 µM ([5]; HCT-116, at 10 μM)",% inhibition of growth in parentheses after >25 ([6]; concentration not given),% inhibition of growth in parentheses after >25 ([7]; concentration not given)
1600 nM,–,22000 nM,–,4800 nM,–,–,–,–,CN(C)c1ccc(Nc2nc(N)c(C(=O)c3ccccn3)s2)cc1 [I(19)],58%,16%,–,–,–,–,–,–
16.4 nM,40 nM,–,–,39.5 nM,880 nM,2700 nM,4000 nM,8000 nM,"Nc1nc(Nc2ccc(S(N)(=O)=O)cc2)sc1C(=O)c1c(F)cccc1C(F)(F)F [C(99), 4-[4-Amino-5-(2-fluoro-6-trifluoromethyl-benzoyl)-thiazol-2-ylamino]-benzenesulfonamide]",–,–,1100 nM,2900 nM,–,–,–,–
3.6 nM,361 nM,–,–,474 nM,15000 nM,25000 nM,16000 nM,21000 nM,"Nc1ccc(Cl)c(C(=O)c2sc(Nc3ccc(N4CCNCC4)cc3)nc2N)c1Cl [H(2), (3-Amino-2,6-dichloro-phenyl)-[4-amino-2-(4-piperazin-1-yl-phenylamino)-thiazol-5-yl]-methanone Trihydrochloride]",–,–,13000 nM,22000 nM,–,–,–,–
2.4 nM,472 nM,–,–,405 nM,880 nM,2400 nM,3500 nM,5800 nM,"Nc1nc(Nc2ccc(N3CCNCC3)cc2)sc1C(=O)c1c(Cl)cccc1Cl [H(3), [4-Amino-2-(4-piperazin-1-yl-phenylamino)-thiazol-5-yl]-(2,6-dichloro-phenyl)-methanone]",–,–,1800 nM,3000 nM,–,–,–,–
420 nM,30 nM,–,–,320 nM,–,–,–,–,"Nc1nc(Nc2ccc(C(=O)O)cc2)sc1C(=O)c1ccccc1[N+](=O)[O-] [E(1), 4-[4-Amino-5-(2-nitro-benzoyl)-thiazol-2-ylamino]-benzoic Acid]",23%,17%,–,–,–,17%,–,–
10.3 nM,97 nM,–,–,191 nM,640 nM,1400 nM,2400 nM,5000 nM,"CN1CCN(c2ccc(Nc3nc(N)c(C(=O)c4c(F)cccc4F)s3)cc2)CC1=O [C(118), 4-{4-[4-Amino-5-(2,6-difluoro-benzoyl)-thiazol-2-ylamino]-phenyl}-1-methyl-piperazin-2-one]",–,–,940 nM,1500 nM,–,–,–,–
